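How tested: cells in 96-well plates exposed to compound for 48 hours at five concentrations. Here, GI50 denotes the concentration required for 50% inhibition of growth.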 Active and inactive are the calls of the source. Cut-off read from the data, not from the text of the source: active = GI50 up to about 1.1 µM and inactive = higher.
Experiments:
Assay in all cases: NCI tumour cell line growth inhibition, 48 h
786-0 = tested on: 786-0
A498 = tested on: A498
A549 = tested on: A549
ACHN = tested on: ACHN
CAKI-1 = tested on: CAKI-1
CCRF-CEM = tested on: CCRF-CEM
COLO 205 = tested on: COLO 205
DLD-1 = tested on: DLD-1
DMS-114 = tested on: DMS-114
DMS-273 = tested on: DMS-273
EKVX = tested on: EKVX
HCC 2998 = tested on: HCC 2998
HCT-116 = tested on: HCT-116
HCT-15 = tested on: HCT-15
HL-60 = tested on: HL-60
HOP-18 = tested on: HOP-18
HOP-62 = tested on: HOP-62
HOP-92 = tested on: HOP-92
HT-29 = tested on: HT-29
IGROV-1 = tested on: IGROV-1
K562 = tested on: K562
KM-20L2 = tested on: KM-20L2
KM12 = tested on: KM12
LOX IMVI = tested on: LOX IMVI
LXFL 529 = tested on: LXFL 529
M14 = tested on: M14
MOLT-4 = tested on: MOLT-4
Malme-3M = tested on: Malme-3M
NCI-H226 = tested on: NCI-H226
NCI-H23 = tested on: NCI-H23
NCI-H460 = tested on: NCI-H460
NCI-H522 = tested on: NCI-H522
OVCAR-3 = tested on: OVCAR-3
OVCAR-4 = tested on: OVCAR-4
OVCAR-5 = tested on: OVCAR-5
OVCAR-8 = tested on: OVCAR-8
RPMI-8226 = tested on: RPMI-8226
RXF 393 = tested on: RXF 393
RXF 631 = tested on: RXF 631
SF-268 = tested on: SF-268
SF-295 = tested on: SF-295
SF-539 = tested on: SF-539
SK-MEL-28 = tested on: SK-MEL-28
SK-MEL-2 = tested on: SK-MEL-2
SK-MEL-5 = tested on: SK-MEL-5
SK-OV-3 = tested on: SK-OV-3
SN12C = tested on: SN12C
SNB-19 = tested on: SNB-19
SNB-75 = tested on: SNB-75
SNB-78 = tested on: SNB-78
SW-620 = tested on: SW-620
U-251 = tested on: U-251
UACC-257 = tested on: UACC-257
UACC-62 = tested on: UACC-62
UO-31 = tested on: UO-31
XF498 = tested on: XF498

Measured: GI50

CC(=O)OC1COC(n2c(=S)n(-c3ccccc3)c(=O)c3ccccc32)C(OC(C)=O)C1OC(C)=O (stereo unspecified)
6 µM: HCT-15
inactive: 786-0 78.9 µM | A498 > 100 µM | A549 39.9 µM | ACHN 25.2 µM | CAKI-1 2.94 µM | CCRF-CEM 32.7 µM | COLO 205 99.1 µM | DLD-1 56.5 µM | DMS-114 40.6 µM | DMS-273 19.2 µM | EKVX > 100 µM | HCC 2998 58.2 µM | HCT-116 47.9 µM | HL-60 20.4 µM | HOP-18 > 100 µM | HOP-62 > 100 µM | HOP-92 37.1 µM | HT-29 85.3 µM | IGROV-1 67.3 µM | K562 2.51 µM | KM-20L2 4.29 µM | KM12 29.2 µM | LOX IMVI 21.4 µM | LXFL 529 8.55 µM | M14 21.3 µM | MOLT-4 21 µM | Malme-3M > 100 µM | NCI-H226 > 100 µM | NCI-H23 70 µM | NCI-H460 66.1 µM | NCI-H522 35 µM | OVCAR-3 74.6 µM | OVCAR-4 26.8 µM | OVCAR-5 > 100 µM | OVCAR-8 72.8 µM | RPMI-8226 22.5 µM | RXF 393 55.3 µM | RXF 631 47.9 µM | SF-268 89.9 µM | SF-295 19.9 µM | SF-539 > 100 µM | SK-MEL-28 > 100 µM | SK-MEL-2 13.1 µM | SK-MEL-5 98.2 µM | SK-OV-3 > 100 µM | SN12C > 100 µM | SNB-19 > 100 µM | SNB-75 > 100 µM | SNB-78 > 100 µM | SW-620 44.6 µM | U-251 78.5 µM | UACC-257 > 100 µM | UACC-62 4.05 µM | UO-31 48.9 µM | XF498 74.6 µM

From ChEMBL document CHEMBL1201862, “PubChem BioAssay data set” (2004)
